Measurements as given in publication PMC2222791, “Induction of the oxidative catabolism of retinoid acid in MCF-7 cells” (British Journal of Cancer, 1997).
Values joined by “and” are separate entries in the source; they are usually repeats but may differ in a detail not shown here. Equal values may be shown once. Read-outs that look alike come from different tables or passages of the source. Starred links: 1 amine or outer side, 2 acyl side, 3 side chain; linkers in the order of their positions; H or OH if unused. Positions of bridges follow the written chain, without caps; N, C: chain ends. Non-standard residues stand in square brackets, D forms with d. Residues, ends and D or L forms follow the SMILES beside them. Chains are numbered I, II in the order given. Actinocin(9to1) = Cc1c2oc3c(C)ccc(C(=O)[*:1])c3nc-2c(C(=O)[*:2])c(N)c1=O; NMeV = CN[C@H](C(=O)O)C(C)C; Sar = CNCC(=O)O

Legend:
RARs = system: RARs; set-up: method as in Duell et al, 1992; details: ref Duell et al, 1992; cited from earlier work
BA-HAN-IC = BA-HAN-IC cells; ref Ramp et al, 1994; cited from earlier work
[1] = system: all-trans-RA catabolism in MCF-7 cells; test: Inhibition of induced all-trans-RA catabolism in MCF-7 cells; format: cell-based, human; details: for IC50: MCF-7 cells preincubated 24 h with 10^-6 M all-trans-RA, 10^-7 M [3H]all-trans-RA as substrate, mean ± s.d., three experiments in duplicate; for Activity in inhibiting all-trans-RA catabolism, times less than all-trans-RA: relative to all-trans-RA, from IC50 values of Table 2; for Inhibition of induced all-trans-RA catabolism, in words: induced MCF-7 cells, 10^-7 M [3H]all-trans-RA, CH55 up to 10 μM
MCF-7 cells [2] = system: MCF-7 cells
MCF-7 cells [3] = test: Viability of MCF-7 cells after preincubation (trypan blue); details: 24 h preincubation, varying concentrations, results not shown
HL-60 leukaemia cells = system: HL-60 leukaemia cells; set-up: method as in Bollag and Holdener, 1992; Matsushima et al, 1992; details: ref Bollag and Holdener, 1992, Matsushima et al; cited from earlier work
[4] = system: RbTE cells and HL-60 leukaemia cells; set-up: method as in Jetten et al, 1987; details: ref Jetten et al, 1987; cited from earlier work
[5] = system: all-trans-RA catabolism in MCF-7 cells; test: Induction of all-trans-RA catabolism in MCF-7 cells by preincubation with retinoids (microcolumn assay); details: for RA catabolism (% of control): 24 h preincubation
CRABP-II mRNA = test: Northern blotting for CRABP mRNA in MCF-7 cells; format: cell-based, human
Method: (§1) British Journal of Cancer (1997) 75(8), 1098-1104 ? […] Quantification was performed by optical densitometric scanning. […] Data are shown as mean ? s.d.

[6] = system: rat Dunning R3327G tumour homogenates; details: cited from earlier work
rat liver homogenates = details: cited from earlier work
[7] = system: all-trans-RA catabolism in MCF-7 cells; test: Enzyme characteristics of induced all-trans-RA catabolism (Michaelis-Menten, Lineweaver-Burk); format: cell-based, human; details: MCF-7 cells preincubated 24 h with 10^-6 M all-trans-RA; substrate 5 x 10^-9 to 10^-6 M [3H]all-trans-RA; overall formation of polar metabolites; read-out: Estimated Km value of induced all-trans-RA catabolism
Method: as §1

hamster liver microsomes = details: read-out: Km value of all-trans-RA catabolism, cited from earlier work
[8] = system: F9 embryonal carcinoma cells; set-up: method as in Willams and Napoli, 1985; details: ref Willams and Napoli, 1985; cited from earlier work
[9] = read-out: Km value of all-trans-RA catabolism
[10] = ref Krekels et al, 1995, read-out: IC50 value for inhibition of all-trans-RA catabolism

In the case of CC1=C(/C=C/C(C)=C/C=C/C(C)=C/C(=O)O)C(C)(C)CCC1O (centres unmarked) [4-hydroxy-RA], the “Potency in stimulating gene transcription, times less potent than RA” value (RARs) is given as 2-10 times.

For CC1=C(/C=C/C(C)=C/C=C/C(C)=C/C(=O)O)C(C)(C)CCC1O (stereo not drawn) [4-hydroxy-all-trans-RA], the “Differentiation-inducing activity relative to all-trans-RA” value (BA-HAN-IC) is listed as “significantly weaker”.

With CC1=C(/C=C/C(C)=C/C=C/C(C)=C\C(=O)O)C(C)(C)CCC1=O [4-keto-13-cis-RA, 4-keto-13-cis-retinoic acid] the IC50 [1] was 6600 nM, the “Activity in inhibiting all-trans-RA catabolism, times less than all-trans-RA” value [1] was “about 50 times” and the “Viability of the cells after preincubation” value (shortened to “Viability of the cells”) (MCF-7 cells [2]) was “did not decrease viability”.

For CC1=C(/C=C/C(C)=C/C=C/C(C)=C/C(=O)O)C(C)(C)CCC1=O [4-keto-RA], the “Potency in stimulating gene transcription, times less potent than RA” value (RARs) is given as 2-10 times.

For CC1=C(/C=C/C(C)=C/C=C/C(C)=C/C(=O)O)C(C)(C)CCC1=O [4-keto-all-trans-RA, 4-Keto-all-trans-retinoic acid], the “Differentiation-inducing activity relative to all-trans-RA” value (BA-HAN-IC) is listed as “significantly weaker”, the IC50 [1] is listed as 370 nM and the “Inhibition of induced all-trans-RA catabolism, in words” value (“Inhibition” below) [1] is listed as “activity similar to that of all-trans-RA”. The “Viability of the cells” value (MCF-7 cells [2]) was “did not decrease viability”.

For CC1=C(/C=C/C(C)=C\C=C\C(C)=C\C(=O)O)C(C)(C)CCC1 [9-cis-RA, 9-cis-retinoic acid], the IC50 ([1]; Homo sapiens, MCF7) was 1890 nM, the “Activity in inhibiting all-trans-RA catabolism, times less than all-trans-RA” value [1] was “about 15 times” and the “Viability of the cells” value (MCF-7 cells [3]) was “did not decrease viability”. The “Potency in inducing differentiation relative to all-trans-RA” value (HL-60 leukaemia cells) was “equipotent to 10-fold as active”.

For CC1=C(/C=C/C(C)=C/C=C/C(C)=C\C(=O)O)C(C)(C)CCC1 [13-cis-RA, 13-cis-retinoic acid], the “Activity in inhibiting all-trans-RA catabolism, times less than all-trans-RA” value [1] is listed as 5 times, the “Viability of the cells” value (MCF-7 cells [3]) is listed as “did not decrease viability” and the “Potency in inducing differentiation relative to all-trans-RA” value (HL-60 leukaemia cells) is listed as “equipotent”.

In the case of CC(C)(C)c1cc(C(=O)/C=C/c2ccc(C(=O)O)cc2)cc(C(C)(C)C)c1 [CH55, (E)-4-[3-(3,5-di-tert-butylphenyl)-3-oxo-l-propenyl]benzoic acid], the “Biological activity, times higher than that of all-trans-RA” value [4] is listed as 20-25 times, the IC50 [1] is listed as greater than 10000 nM and the “Inhibition” value [1] is listed as “did not inhibit”. The “Viability of the cells” value (MCF-7 cells [3]) was “did not decrease viability”.

With Cc1c2oc3c(C)ccc(C(=O)N[C@@H]4C(=O)N[C@H](C(C)C)C(=O)N5CCC[C@H]5C(=O)N(C)CC(=O)N(C)[C@@H](C(C)C)C(=O)O[C@@H]4C)c3nc-2c(C(=O)N[C@@H]2C(=O)N[C@H](C(C)C)C(=O)N3CCC[C@H]3C(=O)N(C)CC(=O)N(C)[C@@H](C(C)C)C(=O)O[C@@H]2C)c(N)c1=O [actinomycin D] (I: T[dV]P[Sar][NMeV] / II: T[dV]P[Sar][NMeV]; ester I:1-I:C, II:1-II:C; linker I:N-II:N via Actinocin(9to1)) the “RA catabolism (% of control)” value ([5]; actinomycin D 0.1 μg ml-1 with 10^-6 M all-trans-RA) was 14.3 % of control and the “RA catabolism (% of control)” value ([5]; actinomycin D 1 μg ml-1 with 10^-6 M all-trans-RA) was 11.7 % of control.

For CC1=C(/C=C/C(C)=C/C=C/C(C)=C/C(=O)O)C(C)(C)CCC1 [all-trans-RA, All-trans-retinoic acid], the “Inhibition” value [1] was “most active compound”, the “Reduction in CRABP-II mRNA” value (CRABP-II mRNA; 10^-7 M all-trans-RA, 24 h) was 20% and the “Expression of CRABP-I mRNA after treatment” value (CRABP-II mRNA; CRABP-I mRNA, results not shown) was “remained low”. For the same compound, the Km [6, 9] was 1.7 µM, the “Preincubation period to maximal induction” value ([5]; 10^-6 M all-trans-RA) was 16 h and 16 to 24 h and the “Time for induction to decrease to the constitutive level after wash-out” value ([5]; 16 h induction with 10^-6 M all-trans-RA, then wash-out) was no more than 24 h. The “Onset of induction detectable” value ([5]; preincubation with all-trans-RA) was no more than 60 min, the “Viability of the cells” value (MCF-7 cells [3]) was “did not decrease viability” and the Km (rat liver homogenates; [9]) was 4.3 µM. The Km [7] was 0.33 µM, the Km (hamster liver microsomes; ref Roberts et al (1980)) was 1.1 µM and the Km (hamster liver microsomes; ref Van Wauwe et al (1988)) was 12.5 µM.

In the case of Clc1cccc(C(c2ccc3[nH]cnc3c2)n2ccnc2)c1.Clc1cccc(C(c2ccc3[nH]cnc3c2)n2ccnc2)c1.O=C(O)/C=C/C(=O)O.O=C(O)/C=C/C(=O)O.O=C(O)/C=C/C(=O)O (stereo not drawn) [liarozole-fumarate, 5-[3(chlorophenyl)(lH-imidazole-l-yl)methyl]-IH-benzimidazole (E)-2-butenedioate(2:3)], the “Inhibition” value [1] is given as “potency similar to that of all-trans-RA”, the IC50 [6, 10] is given as 260 nM and the IC50 (rat liver homogenates; [10]) is given as 140 nM.

In the case of CC1=C(/C=C/C(C)=C/C=C/C(C)=C/CO)C(C)(C)CCC1 [retinol, Retinol], the “Inhibition” value [1] is given as “least active natural compound”, the “Viability of the cells” value (MCF-7 cells [3]) is given as “did not decrease viability” and the “Activity in inducing differentiation relative to all-trans-RA” value [8] is given as “approximately 10%”.
